{"source": "paper PMC6099747", "about": "“New Tetrahydroisoquinoline Derivatives Overcome Pgp Activity in Brain-Blood Barrier and Glioblastoma Multiforme in Vitro” (Molecules : A Journal of Synthetic Chemistry and Natural …, 2018)", "key": {"Pgp [1]": {"target": "T1, Pgp (Homo sapiens, UniProt P08183)", "T1 construct": "expressed in transfected cells; host or cells: MDCK (Madin-Darby Canine Kidney) cells, gift of Dr. Maria Alessandra Contino, University of Bari", "T1 sequence (P08183 whole entry)": "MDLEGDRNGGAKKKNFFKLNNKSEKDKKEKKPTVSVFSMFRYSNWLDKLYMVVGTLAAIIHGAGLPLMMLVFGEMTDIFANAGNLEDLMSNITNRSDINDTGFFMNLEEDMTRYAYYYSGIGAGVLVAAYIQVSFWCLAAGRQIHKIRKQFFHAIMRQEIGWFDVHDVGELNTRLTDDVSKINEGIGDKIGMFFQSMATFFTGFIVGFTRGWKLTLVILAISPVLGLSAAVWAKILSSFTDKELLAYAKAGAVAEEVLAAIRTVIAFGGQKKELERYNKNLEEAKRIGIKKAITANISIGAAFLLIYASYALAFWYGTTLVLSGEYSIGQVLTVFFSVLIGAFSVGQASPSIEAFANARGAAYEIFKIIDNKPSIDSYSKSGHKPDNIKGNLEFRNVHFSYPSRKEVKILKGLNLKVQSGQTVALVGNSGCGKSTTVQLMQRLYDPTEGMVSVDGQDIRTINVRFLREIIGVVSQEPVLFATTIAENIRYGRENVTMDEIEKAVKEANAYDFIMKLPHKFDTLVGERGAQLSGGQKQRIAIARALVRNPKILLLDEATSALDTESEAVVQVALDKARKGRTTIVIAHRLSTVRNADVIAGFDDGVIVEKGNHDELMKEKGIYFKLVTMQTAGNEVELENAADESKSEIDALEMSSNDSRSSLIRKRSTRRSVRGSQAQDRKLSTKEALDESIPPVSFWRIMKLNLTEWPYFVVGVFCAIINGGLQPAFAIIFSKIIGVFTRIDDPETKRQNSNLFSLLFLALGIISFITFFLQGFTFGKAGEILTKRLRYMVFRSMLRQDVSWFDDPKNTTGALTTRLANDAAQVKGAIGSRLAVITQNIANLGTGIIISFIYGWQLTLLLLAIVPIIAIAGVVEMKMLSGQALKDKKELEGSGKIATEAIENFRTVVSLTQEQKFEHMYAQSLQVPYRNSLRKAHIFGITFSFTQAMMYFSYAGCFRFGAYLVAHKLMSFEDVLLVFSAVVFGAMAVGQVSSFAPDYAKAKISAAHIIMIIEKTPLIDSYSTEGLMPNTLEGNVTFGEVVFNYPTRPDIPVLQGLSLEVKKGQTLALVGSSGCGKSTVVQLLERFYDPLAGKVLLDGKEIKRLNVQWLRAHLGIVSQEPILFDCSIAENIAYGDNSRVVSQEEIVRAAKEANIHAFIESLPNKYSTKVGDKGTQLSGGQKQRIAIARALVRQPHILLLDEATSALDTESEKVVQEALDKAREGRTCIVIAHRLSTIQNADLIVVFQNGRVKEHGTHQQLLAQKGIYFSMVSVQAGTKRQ", "parameters": "method as in PMID 27336199, PMID 26797828", "conditions": "cited from earlier work"}, "Caco-2 cells monolayer": {"system": "Caco-2 cells monolayer", "parameters": "method as in PMID 27336199, PMID 26797828", "conditions": "cited from earlier work"}, "Pgp [2]": {"target": "T1, Pgp", "conditions": "Pgp activity, calcein-AM transport; cited from earlier work"}, "MRP1": {"target": "T2, MRP1 (Homo sapiens, UniProt P33527)", "T2 construct": "expressed in transfected cells; host or cells: MDCK (Madin-Darby Canine Kidney) cells, gift of Dr. Maria Alessandra Contino, University of Bari", "T2 sequence (P33527 whole entry)": "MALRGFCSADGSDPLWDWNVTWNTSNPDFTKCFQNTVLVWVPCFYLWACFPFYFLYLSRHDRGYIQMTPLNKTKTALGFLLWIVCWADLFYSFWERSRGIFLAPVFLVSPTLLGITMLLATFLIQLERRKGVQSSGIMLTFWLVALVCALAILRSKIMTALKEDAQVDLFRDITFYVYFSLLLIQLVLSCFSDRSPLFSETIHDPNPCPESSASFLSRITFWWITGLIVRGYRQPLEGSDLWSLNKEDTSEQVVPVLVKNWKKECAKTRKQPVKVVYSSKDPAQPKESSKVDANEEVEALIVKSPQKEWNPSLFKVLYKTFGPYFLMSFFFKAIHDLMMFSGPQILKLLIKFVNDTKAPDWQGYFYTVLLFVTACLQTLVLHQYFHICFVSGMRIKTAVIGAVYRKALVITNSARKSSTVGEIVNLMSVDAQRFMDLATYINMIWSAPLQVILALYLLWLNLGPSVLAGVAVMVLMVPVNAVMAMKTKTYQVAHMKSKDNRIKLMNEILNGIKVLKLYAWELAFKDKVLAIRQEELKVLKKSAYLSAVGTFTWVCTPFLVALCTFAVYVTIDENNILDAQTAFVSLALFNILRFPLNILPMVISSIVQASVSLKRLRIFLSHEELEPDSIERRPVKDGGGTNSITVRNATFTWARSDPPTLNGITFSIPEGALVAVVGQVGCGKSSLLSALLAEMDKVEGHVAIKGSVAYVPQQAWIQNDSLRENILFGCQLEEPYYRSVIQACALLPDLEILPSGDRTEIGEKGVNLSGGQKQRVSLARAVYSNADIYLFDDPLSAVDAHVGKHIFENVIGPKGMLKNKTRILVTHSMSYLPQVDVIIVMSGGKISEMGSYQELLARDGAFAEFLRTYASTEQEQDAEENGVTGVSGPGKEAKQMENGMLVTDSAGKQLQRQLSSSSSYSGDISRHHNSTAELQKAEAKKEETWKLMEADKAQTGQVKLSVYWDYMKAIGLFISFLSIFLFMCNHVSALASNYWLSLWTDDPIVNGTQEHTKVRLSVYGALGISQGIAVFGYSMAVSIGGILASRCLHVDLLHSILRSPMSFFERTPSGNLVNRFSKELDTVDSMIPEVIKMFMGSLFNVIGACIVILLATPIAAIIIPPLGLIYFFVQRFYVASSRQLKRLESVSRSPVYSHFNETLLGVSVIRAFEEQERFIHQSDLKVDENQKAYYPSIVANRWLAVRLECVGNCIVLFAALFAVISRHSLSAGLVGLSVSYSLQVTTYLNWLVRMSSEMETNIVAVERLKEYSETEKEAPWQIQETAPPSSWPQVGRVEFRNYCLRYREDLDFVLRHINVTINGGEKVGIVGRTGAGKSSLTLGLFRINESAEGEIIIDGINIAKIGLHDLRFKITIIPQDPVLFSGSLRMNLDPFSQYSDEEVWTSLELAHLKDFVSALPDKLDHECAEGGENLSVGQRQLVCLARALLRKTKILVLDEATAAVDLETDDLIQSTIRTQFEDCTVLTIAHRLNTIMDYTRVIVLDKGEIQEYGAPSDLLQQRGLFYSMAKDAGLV", "test": "Doxorubicin transport across MRP1-MDCK monolayer", "type": "cell-based", "conditions": "1 nM compound 24 h, 5 μM doxorubicin last 3 h", "method": "(§1) MDCK, Pgp-MDCK, MRP1-MDCK and BCRP-MDCK cells were a kind gift of Dr. Maria Alessandra Contino (Department of Pharmacy, University of Bari, Italy). Culture and seeding conditions for doxorubicin transport assay were carried out as reported in [37].\n(§2) Supplementary Figure S3. Effects of Pgp ligands on doxorubicin transport in Pgp-MDCK,\n(§3) MRP1-MDCK and BCRP-MDCK cells\n(§4) A. MDCK, Pgp-MDCK, MRP1-MDCK, BCRP-MDCK cells were lysed and immunoblotted with\n(§5) h. When indicated, 50 μM verapamil (ver), an inhibitor of Pgp, 25 μM MK571, an inhibitor of […]"}, "Pgp [3]": {"target": "T1, Pgp", "test": "Doxorubicin transport across Pgp-MDCK monolayer", "type": "cell-based", "conditions": "1 nM compound 24 h, 5 μM doxorubicin last 3 h", "method": "as §1, §2, §3\nA. MDCK, Pgp-MDCK, MRP1-MDCK, BCRP-MDCK cells were lysed and immunoblotted with […]"}, "BCRP": {"target": "T3, BCRP (Homo sapiens, UniProt Q9UNQ0)", "T3 construct": "expressed in transfected cells; host or cells: MDCK (Madin-Darby Canine Kidney) cells, gift of Dr. Maria Alessandra Contino, University of Bari", "T3 sequence (Q9UNQ0 1-655)": "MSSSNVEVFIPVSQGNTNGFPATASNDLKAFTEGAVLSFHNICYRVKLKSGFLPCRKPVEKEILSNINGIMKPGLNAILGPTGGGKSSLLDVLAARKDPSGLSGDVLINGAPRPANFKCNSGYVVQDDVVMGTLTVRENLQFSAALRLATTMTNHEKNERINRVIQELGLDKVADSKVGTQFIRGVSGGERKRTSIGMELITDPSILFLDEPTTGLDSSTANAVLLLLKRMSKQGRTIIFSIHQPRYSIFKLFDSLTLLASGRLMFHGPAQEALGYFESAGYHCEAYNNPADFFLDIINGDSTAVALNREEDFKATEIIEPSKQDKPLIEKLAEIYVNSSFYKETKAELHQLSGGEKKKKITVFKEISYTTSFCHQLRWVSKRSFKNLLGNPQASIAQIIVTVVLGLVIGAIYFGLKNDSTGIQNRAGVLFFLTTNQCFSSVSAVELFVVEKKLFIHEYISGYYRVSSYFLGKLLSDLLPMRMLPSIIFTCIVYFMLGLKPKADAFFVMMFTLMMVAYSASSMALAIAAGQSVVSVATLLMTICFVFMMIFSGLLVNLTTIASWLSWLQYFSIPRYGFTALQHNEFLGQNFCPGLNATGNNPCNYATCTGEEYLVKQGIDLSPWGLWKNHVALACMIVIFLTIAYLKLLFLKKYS", "test": "Doxorubicin transport across BCRP-MDCK monolayer", "type": "cell-based", "conditions": "1 nM compound 24 h, 5 μM doxorubicin last 3 h", "method": "as §1, §2, §3, §4, §5"}, "hCMEC/D3 cells": {"system": "hCMEC/D3 cells", "test": "Transendothelial electrical resistance (TEER) of BBB monolayer", "type": "cell-based, human", "conditions": "24 h"}, "hCMEC/D3 cells monolayer [4]": {"system": "hCMEC/D3 cells monolayer", "test": "Doxorubicin delivery across BBB monolayer (Transwell)", "conditions": "25 μM MK571 or 5 μM fumitremorgin C alone, 5 μM doxorubicin 3 h", "protocol": "Cells were seeded at 50,000/cm² density, and grown for 7 days up to confluence in 6-well Transwell devices (0.4 μm diameter pores-size, Transwell insert surface: 4.67 cm^2; Corning Life Sciences, Chorges, France for transport assays) or 24-well Transwell devices (0.4 μm diameter pores-size, Transwell insert surface: 0.33 cm^2; Corning Life Sciences, for TEER measurements), to allow the formation of a competent BBB. […] TEER was measured using a Voltohmetro Millicell-ERS (Millipore, Bedford, MA, USA), according to the manufacturer’s instructions. […] This value was subtracted from each value obtained in the presence of the cells.\n(A) Human cellular microvascular endothelial cells/D3 clone hCMEC/D3 cells were grown in the upper insert of Transwell devices for 7 days. […] Cell viability was measured by a chemiluminescence-based assay, in triplicates. Data are presented as means ± SD (n = 4). […] (B) hCMEC/D3 cells were grown in the upper insert of Transwell devices for 7 days. […] Cells were lysed and immunoblotted with the indicated antibodies. β-Tubulin level was used as control of equal protein loading. […] The amount of doxorubicin in the medium of the lower chamber was measured spectrofluorimetrically, in duplicates. […]\ndoxorubicin in the medium of the lower chamber was measured spectrofluorimetrically, in […]"}, "[5]": {"system": "primary human GB adherent cells (AC)", "test": "Cytotoxicity (LDH release, caspase 3 activity, cell viability) in glioblastoma adherent cells", "type": "cell-based", "conditions": "5 µM doxorubicin alone", "method": "Cell viability was evaluated by ATPLite kit (PerkinElmer), as per manufacturer’s instructions. The results were expressed as percentage of viable cells in each experimental condition versus untreated cells (considered 100%).\nThe release of LDH in cell supernatant was measured as reported in [16], using a Synergy HT microplate reader. Both intracellular and extracellular enzyme activities were expressed as μmol NADH oxidized/min/dish, then extracellular LDH activity was calculated as percentage of the total LDH activity. For cytotoxicity assays in co-cultures, 5 μM doxorubicin, alone or in the presence of compounds, was added to the upper chamber of Transwell inserts. After 24 h, both cell culture medium and GB cells from the lower chamber were collected, and checked for the activity of LDH, as described above.\nThe activity of caspase 3, taken as an index of apoptosis, was measured by incubating 20 µg of cell lysates, collected from GB cells or GB cells growing under BBB monolayer, as reported above, with the fluorogenic substrate of caspase 3 DEVD-7-amino-4-methylcumarine (DEVD-AMC), as reported in [11]. Results were expressed as nmoles AMC/mg proteins, using a calibration curve previously set.\nFigure 3 Effects of Pgp ligands on doxorubicin cytotoxicity in glioblastoma cells. Adherent cells (AC) or neurospheres (NS) from glioblastoma samples were grown for 24 h (panel A–B) or 48 h (panel C) in fresh medium (ctrl) or in the presence of 1 nM of compounds 1–6. When indicated, 5 µM doxorubicin (doxo) was co-incubated. (A) The cell culture supernatant was checked spectrophotometrically for the extracellular activity of LDH, in duplicates. Pooled data of patients 1-3 are presented as means ± SD (n = 3). Vs. AC ctrl: * p < 0.001; vs. NS ctrl: ° p < 0.001; vs. NS doxo: ^# p < 0.001. (B) The activity of caspase 3 was measured fluorimetrically, in duplicates. Data are means ± SD (n = 3). Pooled data of patients 1–3 are presented as means ± SD (n = 3). Vs. AC ctrl: * p < 0.001; vs. NS ctrl: ° p < 0.01; vs. NS doxo: ^# p < 0.05. […] Pooled data of patients 1-3 are presented as means ± SD (n = 3). […]"}, "hCMEC/D3 cells monolayer [6]": {"system": "hCMEC/D3 cells monolayer", "test": "Permeability of dextran-FITC, sucrose, inulin and lucifer yellow across BBB monolayer"}}, "note": "Like-named read-outs stand apart in the source and are kept apart here."}
{"compound": "COc1cc2c(cc1OC)CN(Cc1ccc(-c3ccc(O)cc3)cc1)CC2", "note": "[7 (MC70), 4′-(6,7-Dimethoxy-3,4-dihydro-1H-isoquinolin-2-ylmethyl)biphenyl-4-ol]", "values": [{"measurement": "ATP depletion", "setting": "Pgp [1]", "value": "does not induce ATP depletion"}, {"measurement": "apparent permeability ratio", "setting": "Caco-2 cells monolayer", "value": "< 2"}]}
{"compound": "CCCCOc1ccc(-c2ccc(CN3CCc4cc(OC)c(OC)cc4C3)cc2)cc1", "note": "[Compound 6]", "values": [{"measurement": "EC50", "setting": "Pgp [2]", "value": 5.2, "unit": "nM"}, {"measurement": "doxorubicin delivery across MRP1-MDCK cells", "setting": "MRP1", "value": "strongly reduced"}, {"measurement": "doxorubicin permeability across Pgp-MDCK monolayer", "setting": "Pgp [3]", "value": "did not change"}, {"measurement": "doxorubicin delivery across BCRP-MDCK cells", "setting": "BCRP", "value": "strongly reduced"}, {"measurement": "TEER (Ω cm^2) Compound 1 nM", "setting": "hCMEC/D3 cells; 1 nM compound", "value": "33 ± 2 Ω cm^2"}, {"measurement": "TEER (Ω cm^2) Compound 100 nM", "setting": "hCMEC/D3 cells; 100 nM compound", "value": "31 ± 4 Ω cm^2"}]}
{"compound": "CN(C)C(=O)CCSC(SCCC(=O)O)c1cccc(/C=C/c2ccc3ccc(Cl)cc3n2)c1", "note": "(stereo not drawn) [MK571]", "values": [{"measurement": "doxorubicin delivery across hCMEC/D3 cells monolayer", "setting": "hCMEC/D3 cells monolayer [4]", "value": "increased"}]}
{"compound": "COc1cccc2c1C(=O)c1c(O)c3c(c(O)c1C2=O)C[C@@](O)(C(=O)CO)C[C@@H]3O[C@H]1C[C@H](N)[C@H](O)[C@H](C)O1", "note": "[doxorubicin]", "values": [{"measurement": "LDH release", "setting": "[5]; 24 h", "value": "increased"}, {"measurement": "caspase 3 activity", "setting": "[5]; 24 h", "value": "increased"}, {"measurement": "cell viability", "setting": "[5]; 48 h", "value": "decreased"}]}
{"compound": "COc1ccc2c3c([nH]c2c1)[C@H](C=C(C)C)N1C(=O)[C@@H]2CCCN2C(=O)[C@@H]1C3", "note": "[fumitremorgin C]", "values": [{"measurement": "doxorubicin delivery across hCMEC/D3 cells monolayer", "setting": "hCMEC/D3 cells monolayer [4]", "value": "increased"}]}
{"compound": "[^14C]-inulin", "values": [{"measurement": "permeability coefficient across BBB monolayer", "setting": "hCMEC/D3 cells monolayer [6]; hCMEC/D3 monolayer without compounds, 3 h", "value": "0.45 ± 0.07 × 10^−3 cm·min^−1"}]}
{"compound": "lucifer yellow", "values": [{"measurement": "permeability coefficient across BBB monolayer", "setting": "hCMEC/D3 cells monolayer [6]", "value": "0.43 ± 0.11 × 10^−3 cm·min^−1"}]}
